Paper PMC9775061 (2022)

What was measured:
[1] = tested on: complementary (CAG)3/(CUG)3 RNA duplex (rGG-(CAG)3-CC and rGG-(CUG)3-CC) (RNA, duplex) GGCAGCAGCAGCC/GGCUGCUGCUGCC; assay: fluorescence turn-on (λex 300 nm); settings: 300 mM NaCl; 20 mM MOPS pH 7.0; 10 µM DB-TPE, 1 eq. duplex; much weaker fluorescence, likely non-specific electrostatic
[2] = tested on: rGG-(CAG)6-CC (RNA, repeat) GGCAGCAGCAGCAGCAGCAGCC; assay: fluorescence titration (turn-on, 463 nm, λex 300 nm); settings: 300 mM NaCl; 20 mM MOPS pH 7.0; 10 µM DB-TPE; apparent; 1:1 model

- binding [1]: weak
- Kd [2]: 2 µM
Structure (SMILES): CN(C)CCCNC(=N)c1ccc(C(=N)NCCCN(C)Cc2cn(Cc3ccc(C(=C(c4ccccc4)c4ccccc4)c4ccccc4)cc3)nn2)cc1
